Where two headings read alike, the source gives them in different places.

1 compound from patent publication US11485714B2, “Hydroxyethylamine-based piperazine compounds, and methods of producing and using the same for treating disease” (National Institute of Immunology, priority 2020, dated 2022) can be followed below.

The test system of data set [1] is P. falciparum CQ-resistant (PfDd2). As to the kind of experiment: SYBR Green I assay, asynchronous cultures, CQ-resistant clone. In kind it is cell-based. The settings on record: Plasmodium falciparum.
In data set [2] the test system is Field isolates from Kenya (P. falciparum infected blood). As to the kind of experiment: Screening against freshly collected field isolates. The class given is cell-based. The settings on record: Plasmodium falciparum.
For a further data set, the system named is primary and human cells. As to the kind of experiment: Cell cytotoxicity assays in primary and human cells (summary statements). The class given is cell-based.
Data set [3] concerns P. falciparum, strain IPC 3445. In words: Growth inhibition of ART resistant field strain. In kind it is cell-based. The conditions noted are these: Plasmodium falciparum, 72 h, read-out: IC50, ART resistant strain IPC 3445. The procedure:
Plasmodium falciparum (P. falciparum), strain IPC 3445 was isolated in 2010 from the blood of a human patient with malaria in Pailin province, western Cambodia. Parasites were grown in the lab and tested with different concentrations of the Calxinin and DHA (100 μM-90 nM) for 72 hr incubations.

For data set [4], the system named is P. berghei ANKA sporozoites. As to the kind of experiment: Liver-stage infection in mice by mosquito bites, treatment and survival. In kind it is in vivo. The method, then: [1] Liver-stage infection in mice, treatment and survival assay: GFP-expressing P. berghei ANKA were grown in Anopheles stephensi mosquitoes in the insectary at National Institute of Immunology (New Delhi, India). Sporozoite count per salivary gland and infectivity was determined before the experimental infection of mice by the mosquito bites. Briefly, anaesthetized mice were exposed to a cage of sporozoite carrying starved mosquitoes (100 mosquito/5 mouse) for 15 minutes with intermittent disturbing of mosquito every 2-3 minute in order to encourage biting and injection of more sporozoite. Biting was done at 22+1° C. and dark condition maintained in an incubator. First dose (10 mg/Kg) was given 24 hours before the infection, second dose was given two hours post sporozoite challenge (biting) drug was given intraperitonially (I.P). Remaining dosages were given 24 h post challenge.
[2] For calculating parasite load, liver of experimental mice were isolated 50 h post infection. Mice were anesthetized, abdominal area sterilized with 70% ethanol and liver dissected out. Liver was homogenized in precold denaturating solution. RNAs were isolated from the homogenized sample followed by Real Time polymerase chain reaction (PCR).
Prompted by the notable in vitro liver stage activity, mice were infected with sporozoites through mosquito bites to test the efficacy of Compound I on liver stage infection in mouse models. The infected mice were treated with fixed dose of 10 mg/kg for three days. Liver stage P. berghei parasites mature into merozoites in about 55 hours. […] To understand the pre-patient period and delay, the starting of blood stage parasite infection was monitored after three days post challenge by observing Giemsa stained smears. […] Single day delay in blood stage infection corresponds to about 10-fold decrease in liver parasite burden. Experimental mice were kept for survival studies after treatment with Compound 1 (10 mg/kg) and death day was noted.
The percentage of parasitemia remained low until day 7 post-sporozoite challenges.

For another data set, the system named is human platelets. In words: Agonist-induced platelet aggregation. The class given is cell-based. The conditions noted are these: up to 20 μg/ml. The method, then: Studies were performed to assess the effect of Calxinin on hemostatic parameters using plasmatic and whole blood assays.
In data set [5] the test system is human T-type calcium channel. As to the kind of experiment: Whole cell patch clamp in HEK 293 cells. The conditions noted are these: increasing concentrations up to 1 microMolar. The class given is cell-based.
Procedure: These currents were measured with the Patch clamp method in the “whole cell” configuration. In this configuration, the total currents that pass through all the calcium channels present in the plasma membrane are measured. In this case, it is measured in HEK cells, which constitutively express the human T type Calcium channel. In this case, the internal solutions contain the Cs+ instead of K+, thus blocking the K+ channels and the external one contains TEA an external channel blocker of K. This way the only currents that can develop in these cells are that of T type Calcium channels. This calcium channel is a voltage dependent channel, which is characterized by activating at membrane potentials that are more negative than L-type channels and by rapidly inactivating. […] This is the characteristic of the human T type calcium channel.
Human T-type calcium channel currents were measured with the Patch clamp on the “whole cell” configuration in HEK cells constitutively expressing human T type Calcium channel.
Data set [6] relates to Leishmania donovani amastigotes. As to the kind of experiment: Anti-leishmania activity, amastigotes in THP-1 macrophages. The class given is cell-based. The settings on record: 96 hours, read-out: IC50, L. donovani amastigotes in THP-1 macrophages. The procedure: To test the anti-leishmania activity, Leishmania donovani strains: L. donovani reporter expressing red fluorescent protein, DsRed2 transgenic L. donovani (LV82)15, obtained from Ohio State University. Columbus (OSUMC). Extracellular (Promastigotes) L. donovani parasites were maintained in M199 media supplemented with 15% heat-inactivated fetal bovine serum (HI-FBS), 20 mM HEPES, 100 U/ml of penicillin and streptomycin at pH 5.5 with 5% CO2. Cultures were constantly maintained in a 25° C. incubator. Anti-leishmanial activity was determined by incubating exponentially growing log-phase promastigotes with THP-1 macrophage for 24 h to infect. Following this, plates were washed to remove the uninfected promastigotes, STD drug and Calxinin were treated 96-well plates for 96 hours. Miltefosine and paromomycin, standard medications, serve as a positive control at equivalent concentrations. Morphological alterations in the amastigotes following treatment with drugs, were examined by fluorescent microscopy. Images were analyzed for percent parasite survival upon drug treatment and enumerated the IC50. The inhibition curve of Compound I was very similar to Amphotericin B (AmpB) and lower than the 2 standard drugs.

Data set [7] in a line: In vivo acute toxicity study and pathological examination. More on the design: species or system BALB/C mice. From the text:
Again mice were randomly divided in two groups. Each group consisted of 3 mice.
Mice were divided into two groups of three mice. […] Again Mice were randomly divided in two groups. Each group consisted of 3 mice. […] Serum was taken for biochemistry studies.

Procedure for primary and human cells: PBMC were isolated from healthy donors using the Ficoll-Paque™ technique (GE Healthcare Bioscience AB, Uppsala, Sweden) from donor leukopack samples obtained from LUMC blood bank services. […] Robust cells at a concentration of 80,000 cells/ml were plated into 96-well plates and incubated for 24 hours. Cell viability and proliferation was determined by use of both MTT and Cell Titer Glo@ assays for both cell types. MTT assay was conducted by addition of 10 μL MTT solution (5 mg/mL) into each well, incubated for 4 hour at 37° C. followed by addition of 50 μL DMSO to dissolve the formazan precipitate according to the manufacturer's protocol. Aliquots were drawn from each well and color intensity was measured spectrophotometrically in SpectraMax® M5 Multi-Mode Microplate Reader.
In addition, the cell viability of Huh 7 and HEK293 cells was evaluated post drug exposure using the Alamar Blue assay [Riss, Terry L., et al. “Cell viability assays.” Assay Guidance Manual [Intenet]. […] Cells (1×10/well) were exposed to varying concentrations of test compounds, for 24 hours in 96-well plate format along with 10/100 μL Alamar Blue solution (10×=4.8 mM in phosphate buffer) per well.

For the compound `NC(Cc1ccccc1)C(O)CN1CCN(Cc2ccc(C(F)(F)F)cc2)CC1` (centres unmarked) [Compound I], the IC50 turned out to be 88 nM in [1] (72 h, read-out: PfDd2 IC50, nM (±SD)); 88 nM in data set [1] (DD2, read-out: IC50 against asexual stages, drug resistant (CQ-resistant) DD2); 88 nM in data set [1] (read-out: mean half maximal inhibitory concentration (IC50) for PfDd2); 50 nM in data set [2] (read-out: Field isolates from Kenya IC50, nM (±SD)); 643 nM in data set [2] (read-out: IC50 against freshly collected field isolates of P. falciparum infected blood); 92.6 nM in [3]. The IC50 in data set [6] was determined as 79.8 nM. Moreover, the “toxicity to HEK293, Huh 7.1, HepG2 and PBMCs” value in the data set on primary and human cells is recorded as “did not show any toxicity”. In addition, the “concentration up to which no toxicity was seen” value in the data set on primary and human cells (primary and human cells) was > 30 µM. Also, the “Mean survival time (MST)” value in data set [4] (10 mg/kg) is recorded as “about 9 days”. The “decrease in liver parasite burden corresponding to the delay” value in data set [4] (10 mg/kg) is “about 10 fold”. Besides, in data set [4] (10 mg/kg), the “delay in the prepatent period” value is “One day's delay”. Moreover, in data set [4] (10 mg/kg for three days, I.P), the “inhibition of liver stage infection in mice” value amounted to 30%. Besides, the “agonist-induced aggregation of human platelets” value in the data set with human platelets is listed as “did not alter agonist-induced aggregation of human platelets”. Also, in data set [5], the “activity of the Calcium T Channel (current amplitude, voltage dependence of activation)” value is “No difference”. Also, the “pathological examination of liver, kidney, stomach” value in data set [7] (300 mg/kg oral for four consecutive days) was “does not indicate an increase or decrease of Kuepfer cells in the liver, loss of structural integrity in the kidney or lining of stomach”. The toxicity overall entry in data set [7] (1200 mg/kg (300 mg/kg for four consecutive days)) is “no indication of toxicity”. In addition, in [7] (oral), the behavior entry is “no behavior changes were observed”. For the same compound, in data set [7] (oral), the body weight entry is on record as “remained constant”. Also, the “motor and feeding activities” value in data set [7] (oral) is on record as “normal”.
